Where “and” joins values, the source holds several entries; their conditions need not be identical. Equal values may be shown once.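 Growth conditions: 96-well plates. Treatment: test compound, 48 hours, 5 concentrations. Analysis: linear interpolation between bracketing concentrations; unreached endpoints set to highest concentration. The concentration for 50% growth inhibition is given as GI50. TGI is the concentration that stops growth completely.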

Test systems include MCF7 breast; PC-3 prostate; T-47D breast; MDA-N; DMS 273 small cell lung; KM20L2 colon; M19-MEL melanoma.
Common to all, as to assay: growth of human tumour cells (NCI), 48 h

As to `CC(=O)N[C@H](C(=O)N[C@@H](CCCNC(=N)N)C(=O)N[C@@H](CCCCN)C(=O)N[C@@H](CCCNC(=N)N)C(=O)N[C@]1(C)CCCCCC/C=C\CCC[C@@](C)(C(=O)N[C@@H](CCCNC(=N)N)C(=O)N[C@@H](CCC(=O)O)C(=O)N[C@@H](CC(C)C)C(=O)N[C@H](C(=O)N[C@@H](CCC(=O)O)C(N)=O)C(C)C)NC(=O)[C@H](CCC(N)=O)NC(=O)[C@H](CC(C)C)NC(=O)[C@H](CC(C)C)NC(=O)[C@H](CCCNC(=N)N)NC(=O)[C@H](CCCNC(=N)N)NC(=O)[C@H](CC(C)C)NC1=O)C(C)C`, the GI50 in the assay on MCF7 breast is 2 µM; in the assay on PC-3 prostate it was 8.24 µM; in the assay with T-47D breast, 1.03 µM. The TGI with MCF7 breast was 32.9 µM; with PC-3 prostate, 23.7 µM; in the assay on T-47D breast, 2.31 µM.

In the case of `CCN(CC)CCNC(=O)c1cn2ncnc(Oc3ccc(NC(=O)Nc4ccc(Cl)c(C(F)(F)F)c4)c(F)c3)c2c1C`, the figures for the GI50 with MCF7 breast, with PC-3 prostate and with T-47D breast were 1.4 µM, 1.53 µM and 1.83 µM, respectively. Besides, the TGI with MCF7 breast amounted to 3.15 µM; in the assay with PC-3 prostate, 3.3 µM; in the assay with T-47D breast it was 4 µM.

In the case of `Cc1cc(Nc2nc(SCc3ccc(C(=O)Nc4ccc(F)cc4N)cc3)nn3cccc23)n[nH]1`, the GI50 with MCF7 breast was 0.0518 µM; in the assay on PC-3 prostate, 0.355 µM; in the assay on T-47D breast, 1.12 µM. For the same compound, the TGI in the assay with MCF7 breast stood at 29.3 µM; in the assay with PC-3 prostate it was 44.2 µM; in the assay on T-47D breast it was 52.6 µM.

With `COc1ccccc1-c1cc(=O)c2ccc(C)nc2[nH]1`, the TGI was more than 100 µM in the assay on MCF7 breast, 41.5 µM in the assay on MDA-N, more than 100 µM with PC-3 prostate and more than 100 µM with T-47D breast. Also, the GI50 is 20.1 µM in the assay with MDA-N and more than 100 µM in the assay on PC-3 prostate.

As for `OC(c1ccc(Br)cc1)(c1cccs1)C1CC1` (stereo unspecified), the TGI in the assay on MCF7 breast is 72.6 µM; with MDA-N, 41.8 µM; in the assay with PC-3 prostate it was 52.8 µM; in the assay with T-47D breast, 88.5 µM.

As to `COc1ccc(-c2nnc(N3CCN(C(=O)CN4CCN(c5ccc(OC)cc5)CC4)CC3)nc2-c2ccc(OC)cc2)cc1`, the results for the GI50 in the assay with MCF7 breast, in the assay on PC-3 prostate and with T-47D breast were 1.76 µM, 8.49 µM and 2.78 µM, respectively. Besides, the figures for the TGI with MCF7 breast, in the assay with PC-3 prostate and with T-47D breast were 3.56 µM, 26.9 µM and 9.36 µM, respectively.

On to `Cn1cc(-c2csc(-c3cn(C)c4ccccc34)n2)c2cnccc21`, for which, in the assay on MCF7 breast, the GI50 was 0.324 µM and the TGI was determined as 1.66 µM. Further, in the assay with PC-3 prostate, the GI50 was 1.47 µM and the TGI amounted to 2.99 µM.

`COc1ccccc1/C=C/C(=O)/C=C/c1ccccc1O`: the GI50 is 0.195 µM in the assay with MCF7 breast, 0.539 µM with PC-3 prostate and 0.488 µM in the assay on T-47D breast. Further, the TGI with MCF7 breast is 1.73 µM; in the assay on PC-3 prostate, 2.75 µM; with T-47D breast, 4.52 µM.

`CCOC(=O)/C(=C/c1cccc(OC)c1)N(CC)CC`: the TGI with DMS 273 small cell lung, with KM20L2 colon and in the assay with M19-MEL melanoma was more than 100 µM each time.

Turning to `COc1ccc(/C=C2/CCc3cc4ccc(OC)cc4[o+]c32)c(O)c1`, the values for the GI50 in the assay on MCF7 breast, in the assay on PC-3 prostate and in the assay on T-47D breast were 4.31 µM, 2.74 µM and 3.04 µM, respectively. For the same compound, the figures for the TGI in the assay on MCF7 breast, with PC-3 prostate and in the assay with T-47D breast were 22 µM, 16.2 µM and 22.1 µM, respectively.

As to `OB1OCc2cc(/C=C/c3cccc(C(F)(F)F)c3)ccc21`, the GI50 in the assay on MCF7 breast was 0.452 µM; with PC-3 prostate, 1.88 µM; with T-47D breast, 0.425 µM. Further, the TGI in the assay with MCF7 breast is 44.4 µM; with PC-3 prostate it was more than 100 µM; in the assay on T-47D breast it was more than 100 µM.

For the compound `OC(CN1CC1)C(O)CN1CC1` (stereo unspecified), the GI50 with MDA-N, in the assay on PC-3 prostate and in the assay on T-47D breast was more than 50 µg/mL throughout. Besides, the TGI in the assay with MDA-N, in the assay on PC-3 prostate and with T-47D breast was more than 50 µg/mL throughout.

As for `Cn1c(/C(C#N)=C/c2ccc3ccccc3c2)cc2ccccc21`, the GI50 is 0.0946 µM with MCF7 breast and 0.22 µM in the assay on PC-3 prostate. In addition, the TGI with MCF7 breast, in the assay with PC-3 prostate and in the assay on T-47D breast was more than 100 µM each time.

For `c1ccc2nc3c(cc4ccccn43)nc2c1`, the GI50 in the assay on MCF7 breast was more than 100 µM; with PC-3 prostate, 63.7 µM; in the assay on T-47D breast, 88.1 µM. Also, the TGI with MCF7 breast, in the assay with PC-3 prostate and in the assay on T-47D breast was more than 100 µM in each case.

On to `O=C(/C=C/c1ccccc1)CC(c1ccccc1)N1CCOCC1` (stereo unspecified), for which the GI50 in the assay with MCF7 breast was 4.68 µM; in the assay with PC-3 prostate, 4.54 µM; in the assay with T-47D breast, 4.26 µM. The results for the TGI in the assay on MCF7 breast, in the assay on PC-3 prostate and in the assay on T-47D breast were 80.3 µM, 19.1 µM and 23.5 µM, respectively.

For the compound `C=CCOC(=O)CC[N+]1=CCC(c2ccccc2)(c2ccccc2)O1`, the TGI with MCF7 breast, in the assay on MDA-N, in the assay with PC-3 prostate and in the assay with T-47D breast was more than 100 µM throughout.

In the case of `Cc1c(C(=O)CSc2nc3ccccc3c(=O)n2-c2ccccc2)c(=O)n(-c2ccccc2)n1C`, the TGI in the assay on DMS 273 small cell lung, with KM20L2 colon and with M19-MEL melanoma was more than 100 µM each time.

With `CCC1=C[C@@H]2CN(C1)Cc1c([nH]c3ccccc13)[C@@](C(=O)OC)(c1cc3c(cc1OC)N(C)[C@H]1[C@@](O)(C(=O)OC)[C@H](OC(C)=O)[C@]4(CC)[C@@H]5C[C@@H]5CN5CC[C@]31[C@@H]54)C2`, the GI50 with MCF7 breast and in the assay on PC-3 prostate was less than 0.005 µM in each case. Also, the TGI was 5.44 µM and 12.6 µM with MCF7 breast; 6.54 µM and 15 µM in the assay on PC-3 prostate; 11.5 µM and 23.9 µM in the assay on T-47D breast.

`Cc1nc(Nc2n[nH]c3c2CN(C(=O)N[C@H](CN(C)C)c2ccccc2)C3(C)C)c2sccc2n1`: the GI50 in the assay on MCF7 breast was 0.00523 µM and < 0.01 µM; with PC-3 prostate, 0.242 µM and 0.041 µM; in the assay on T-47D breast, 0.0942 µM and 0.562 µM. Besides, the TGI in the assay on MCF7 breast was > 5.5 µM and 6.46 µM; in the assay with PC-3 prostate, > 6.33 µM and 9.76 µM; in the assay with T-47D breast it was 5.47 µM and 8.67 µM.

For `c1ccc(Cn2cnc3ccc(-c4nc(-c5ccc6c(c5)ncn6C5CCCCC5)cn5ccnc45)cc32)cc1`, in the assay with MCF7 breast, the GI50 is 2.72 µM and the TGI was more than 100 µM. Moreover, in the assay with PC-3 prostate, the GI50 was 1.97 µM and the TGI came out at 7.55 µM.

With `COc1cc2cnc3c4ccccc4ccc3c2cc1OC`, the TGI in the assay with KM20L2 colon and in the assay with M19-MEL melanoma was more than 100 µM each time.
